Results on 5 compounds are retold here after patent US20110195900A1, “PEPTIDIC PTH RECEPTOR AGONISTS” (FERRING B.V., priority 2008, published 2011).

As a reminder, the EC50 is the concentration giving half of the maximal effect.

This assay deals with T1, human PTH-1 receptor (Homo sapiens, UniProt Q03431).
T1 construct: expressed in transfected cells; host or cells: HEK-293
T1 sequence (Q03431 27-593): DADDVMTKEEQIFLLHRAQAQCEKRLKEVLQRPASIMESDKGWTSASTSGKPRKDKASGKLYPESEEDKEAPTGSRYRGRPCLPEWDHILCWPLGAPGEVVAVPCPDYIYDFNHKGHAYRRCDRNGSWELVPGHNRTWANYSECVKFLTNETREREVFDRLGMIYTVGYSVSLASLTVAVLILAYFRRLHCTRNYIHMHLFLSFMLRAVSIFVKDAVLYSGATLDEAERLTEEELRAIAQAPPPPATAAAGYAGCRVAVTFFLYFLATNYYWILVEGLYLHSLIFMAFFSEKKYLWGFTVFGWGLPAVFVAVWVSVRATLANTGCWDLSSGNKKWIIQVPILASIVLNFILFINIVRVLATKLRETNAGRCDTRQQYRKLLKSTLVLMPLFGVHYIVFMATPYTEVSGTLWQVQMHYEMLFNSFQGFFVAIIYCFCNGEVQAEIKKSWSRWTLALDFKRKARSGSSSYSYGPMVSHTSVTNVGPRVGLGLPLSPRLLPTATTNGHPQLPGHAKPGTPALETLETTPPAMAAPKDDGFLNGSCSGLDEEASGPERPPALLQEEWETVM
Kind of assay: Reporter gene assay (CRE-luciferase) for agonist activity in transiently transfected HEK-293 cells. It counts as cell-based. Conditions: for hPTHR-2/hPTHR-1: ratio of EC50 values, selectivity for hPTH-1 receptor over hPTH-2 receptor. The procedure: Agonist activity of compounds on the human PTH-1 receptor was determined in a reporter gene assay by transiently transfecting HEK-293 cells with plasmids encoding human PTH-1 receptor under control of the SV40 promoter and a luciferase reporter gene under control of cAMP responsive elements (CRE). See Himmler et al, J. Recept. Res. 13 (1993) 79-94, for further guidance on this assay. Transfected cells were exposed to serial dilutions of compounds for 4-5 hours followed by lysis of cells, determination of luciferase activity, and determination of compound efficacies and EC50 values through non-linear regression.
PTH (1-34) was used as an internal control in each experiment and compounds were tested in at least three independent experiments. To determine selectivity, compounds were tested in luciferase-based transcriptional reporter gene assays expressing the human PTH-2 receptor.

The mark [1] stands for this setting: Table 3, HEK-293 cells, CRE-luciferase, 4-5 hours exposure, read-out: hPTHR-1 EC50.

Where two headings read alike, the source gives them in different places. Non-standard residues stand in square brackets, D forms with d. Residues, ends and D or L forms follow the SMILES beside them. 1Nal = N[C@@H](Cc1cccc2ccccc12)C(=O)O; 2Nal = N[C@@H](Cc1ccc2ccccc2c1)C(=O)O; β3hI = CC[C@H](C)[C@H](N)CC(=O)O; Nle = CCCC[C@H](N)C(=O)O; βAla = NCCC(=O)O

With `CCCC[C@H](NC(=O)[C@H](CO)NC(=O)[C@H](CC(N)=O)NC(=O)[C@H](CC(C)C)NC(=O)[C@H](Cc1c[nH]cn1)NC(=O)[C@H](CCCCN)NC(=O)CNC(=O)[C@H](CC(C)C)NC(=O)[C@H](CC(N)=O)NC(=O)[C@H](Cc1c[nH]cn1)NC(=O)[C@H](CCCC)NC(=O)[C@H](CC(C)C)NC(=O)[C@H](CCC(N)=O)NC(=O)[C@@H](NC(=O)[C@H](CCC(=O)O)NC(=O)[C@H](CO)NC(=O)[C@@H](NC(=O)[C@@H](N)CO)C(C)C)[C@@H](C)CC)C(=O)NCCC(=O)N[C@@H](CCCNC(=N)N)C(=O)N[C@H](C(=O)N[C@@H](CCC(=O)O)C(=O)N[C@@H](Cc1cccc2ccccc12)C(=O)N[C@@H](CC(C)C)C(=O)N[C@@H](CCCNC(=N)N)C(=O)N[C@@H](CCCCN)C(=O)N[C@@H](CCCCN)C(=O)N[C@@H](CC(C)C)C(=O)N[C@@H](CCC(N)=O)C(=O)N[C@@H](CC(=O)O)C(=O)N[C@H](C(=O)N[C@@H](Cc1c[nH]cn1)C(=O)N[C@@H](CC(N)=O)C(=O)N[C@@H](Cc1ccccc1)C(N)=O)C(C)C)C(C)C` [SEQ ID NO: 7, [Nle^8,18, β-Ala^19,1-Nal^23] hPTH (1-34)-NH2] (H-SVSEIQL[Nle]HNLGKHLNS[Nle][βAla]RVE[1Nal]LRKKLQDVHNF-NH2), the EC50 under setting [1] came out at 0.21 nM. For the same compound, the hPTHR-2/hPTHR-1 (Table 3) is 52.

In the case of `CCCC[C@H](NC(=O)[C@H](CC(C)C)NC(=O)[C@H](CCC(N)=O)NC(=O)[C@@H](NC(=O)[C@H](CCC(=O)O)NC(=O)[C@H](CO)NC(=O)[C@@H](NC(=O)[C@@H](N)CO)C(C)C)[C@@H](C)CC)C(=O)N[C@@H](Cc1c[nH]cn1)C(=O)N[C@@H](CC(N)=O)C(=O)N[C@@H](CC(C)C)C(=O)NCC(=O)N[C@@H](CCCCN)C(=O)N[C@@H](Cc1c[nH]cn1)C(=O)N[C@@H](CC(C)C)C(=O)N[C@@H](CC(N)=O)C(=O)N[C@@H](CO)C(=O)N[C@H](CC(=O)N[C@@H](CCC(=O)O)C(=O)N[C@@H](CCCNC(=N)N)C(=O)N[C@H](C(=O)N[C@@H](CCC(=O)O)C(=O)N[C@@H](Cc1cccc2ccccc12)C(=O)N[C@@H](CC(C)C)C(=O)N[C@@H](CCCNC(=N)N)C(=O)N[C@@H](CCCCN)C(=O)N[C@@H](CCCCN)C(=O)N[C@@H](CC(C)C)C(=O)N[C@@H](CCC(N)=O)C(=O)N[C@@H](CC(=O)O)C(=O)N[C@H](C(=O)N[C@@H](Cc1c[nH]cn1)C(=O)N[C@@H](CC(N)=O)C(=O)N[C@@H](Cc1ccccc1)C(=O)O)C(C)C)C(C)C)[C@@H](C)CC` [SEQ ID NO: 8, [Nle^8, β-hIle^18,1-Nal^23] hPTH (1-34)-OH] (H-SVSEIQL[Nle]HNLGKHLNS[β3hI]ERVE[1Nal]LRKKLQDVHNF-OH), the EC50 under setting [1] is 0.21 nM. Also, the hPTHR-2/hPTHR-1 (Table 3) is recorded as 124.

Turning to `CCCC[C@H](NC(=O)[C@H](CC(C)C)NC(=O)[C@H](CCC(N)=O)NC(=O)[C@@H](NC(=O)[C@H](CCC(=O)O)NC(=O)[C@H](CO)NC(=O)[C@@H](NC(=O)[C@@H](N)CO)C(C)C)[C@@H](C)CC)C(=O)N[C@@H](Cc1c[nH]cn1)C(=O)N[C@@H](CC(N)=O)C(=O)N[C@@H](CC(C)C)C(=O)NCC(=O)N[C@@H](CCCCN)C(=O)N[C@@H](Cc1c[nH]cn1)C(=O)N[C@@H](CC(C)C)C(=O)N[C@@H](CC(N)=O)C(=O)N[C@@H](CO)C(=O)N[C@H](CC(=O)N[C@@H](CCC(=O)O)C(=O)N[C@@H](CCCNC(=N)N)C(=O)N[C@H](C(=O)N[C@@H](CCC(=O)O)C(=O)N[C@@H](Cc1cccc2ccccc12)C(=O)N[C@@H](CC(C)C)C(=O)N[C@@H](CCCNC(=N)N)C(=O)N[C@@H](CCCCN)C(=O)N[C@@H](CC(C)C)C(=O)N[C@@H](CC(C)C)C(=O)N[C@@H](CCC(N)=O)C(=O)N[C@@H](CC(=O)O)C(=O)N[C@H](C(=O)N[C@@H](Cc1c[nH]cn1)C(=O)N[C@@H](CC(N)=O)C(=O)N[C@@H](Cc1ccccc1)C(=O)O)C(C)C)C(C)C)[C@@H](C)CC` [SEQ ID NO: 9, [Nle^8, β-hIle^18,1-Nal^23, Leu^27] hPTH (1-34)-OH] (H-SVSEIQL[Nle]HNLGKHLNS[β3hI]ERVE[1Nal]LRKLLQDVHNF-OH; N-terminus assumed), it took 0.14 nM to reach a half-maximal effect (EC50). For the same compound, the hPTHR-2/hPTHR-1 (Table 3) is listed as 158.

For the compound `CCCC[C@H](NC(=O)[C@H](CC(C)C)NC(=O)[C@H](CCC(N)=O)NC(=O)[C@@H](NC(=O)[C@H](CCC(=O)O)NC(=O)[C@H](CO)NC(=O)[C@@H](NC(=O)[C@@H](N)CO)C(C)C)[C@@H](C)CC)C(=O)N[C@@H](Cc1c[nH]cn1)C(=O)N[C@@H](CC(N)=O)C(=O)N[C@@H](CC(C)C)C(=O)NCC(=O)N[C@@H](CCCCN)C(=O)N[C@@H](Cc1c[nH]cn1)C(=O)N[C@@H](CC(C)C)C(=O)N[C@@H](CC(N)=O)C(=O)N[C@@H](CO)C(=O)N[C@H](CC(=O)N[C@@H](CCC(=O)O)C(=O)N[C@@H](CCCNC(=N)N)C(=O)N[C@H](C(=O)N[C@@H](CCC(=O)O)C(=O)N[C@@H](Cc1cccc2ccccc12)C(=O)N[C@@H](CC(C)C)C(=O)N[C@@H](CCCNC(=N)N)C(=O)N[C@@H](CCCCN)C(=O)N[C@@H](CC(C)C)C(=O)N[C@@H](CC(C)C)C(=O)N[C@@H](CCC(N)=O)C(=O)N[C@@H](CC(=O)O)C(=O)N[C@H](C(=O)O)C(C)C)C(C)C)[C@@H](C)CC` [SEQ ID NO: 10, [Nle^8, β-hIle^18,1-Nal^23, Leu^27] hPTH (1-31)-OH] (H-SVSEIQL[Nle]HNLGKHLNS[β3hI]ERVE[1Nal]LRKLLQDV-OH), the response was half-maximal at 0.09 nM (EC50). For the same compound, the hPTHR-2/hPTHR-1 (Table 3) is on record as 811.

Consider `CCCC[C@H](NC(=O)CCNC(=O)[C@H](CC(N)=O)NC(=O)[C@H](CC(C)C)NC(=O)[C@H](Cc1c[nH]cn1)NC(=O)[C@H](CCCCN)NC(=O)CNC(=O)[C@H](CC(C)C)NC(=O)[C@H](CC(N)=O)NC(=O)[C@H](Cc1c[nH]cn1)NC(=O)[C@H](CCCC)NC(=O)[C@H](CC(C)C)NC(=O)[C@H](CCC(N)=O)NC(=O)[C@@H](NC(=O)[C@H](CCC(=O)O)NC(=O)[C@H](CO)NC(=O)[C@@H](NC(=O)[C@H](C)N)C(C)C)[C@@H](C)CC)C(=O)N[C@@H](CCC(=O)O)C(=O)N[C@@H](CCCNC(=N)N)C(=O)N[C@H](C(=O)N[C@@H](CCC(=O)O)C(=O)N[C@@H](Cc1ccc2ccccc2c1)C(=O)N[C@@H](CC(C)C)C(=O)N[C@@H](CCCNC(=N)N)C(=O)N[C@@H](CCCCN)C(=O)N[C@@H](CCCCN)C(=O)N[C@@H](CC(C)C)C(=O)N[C@@H](CCC(N)=O)C(=O)N[C@@H](CC(=O)O)C(=O)N[C@H](C(=O)N[C@@H](Cc1c[nH]cn1)C(=O)N[C@@H](CC(N)=O)C(=O)N[C@@H](Cc1ccccc1)C(N)=O)C(C)C)C(C)C` [SEQ ID NO: 12, [Ala^1, Nle^8,18, β-Ala^17,2-Nal^23] hPTH (1-34)-NH2] (H-AVSEIQL[Nle]HNLGKHLN[βAla][Nle]ERVE[2Nal]LRKKLQDVHNF-NH2), for which the EC50 under setting [1] worked out at 0.22 nM. Further, the hPTHR-2/hPTHR-1 (Table 3) stood at 430.
